Assay results from paper PMC9936582, “Sulfamate Acetamides as Self-Immolative Electrophiles for Covalent Ligand-Directed Release Chemistry” (Journal of the American Chemical Society, 2023).
pIC50: −log10 of the molar value. “Also recorded” adds a separate entry of the source.

What was measured:
Pin1 = target: T1, Pin1 (Homo sapiens, UniProt Q13526); assay: Intact protein MS labeling of Pin1; format: binding; conditions: 2 μM Pin1, 2 μM compound, pH 7.5, 1 h, 25 °C
T1 construct: The catalytic domain of Pin1 (2 μM) in […] and 75 mM NaCl (pH 7.5) was incubated; made in house
T1 sequence (Q13526 52-163 limits assumed): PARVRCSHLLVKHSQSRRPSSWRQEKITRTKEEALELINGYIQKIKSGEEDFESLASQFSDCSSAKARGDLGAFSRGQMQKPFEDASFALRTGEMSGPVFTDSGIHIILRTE
Experimental: Initially, we incubated these compounds (4a–4g; 2 μM) with Pin1 (2 μM; 50 mM Tris buffer; pH 7.5, 1 h; 25 °C) to check covalent labeling by intact protein MS (Figure 5B,C; Figure S23). Under these conditions, sulfopin labeled 59% as previously reported;[38] the sulfonate (4a) labeled 18%, whereas alkyl sulfamates (4b and 4c) labeled 16 and 56%, respectively. […] We have previously reported that replacing the tert-butyl group in sulfopin by a cyclohexyl increases the labeling along with intrinsic thiol reactivity. Compound 4g contains a cyclohexyl group instead of the tert-butyl and a phenyl sulfamate electrophile and was able to label >95% of Pin1 under these conditions.
Pin1 was expressed and purified as previously reported.[38] The catalytic domain of Pin1 (2 μM) in […] and 75 mM NaCl (pH 7.5) was incubated with 2 μM sulfopin sulfamate (4a–4g) for 1 h at 25 °C.
(§1) The reaction mixtures, at room temperature for various times, were injected into the LC/MS. For data analysis, the raw spectra were deconvoluted using a 20,000:40,000 Da (For Pin1, 10,000:30,000) window and 1 Da resolution. The labeling percentage for a compound was determined as the labeling of a specific compound (alone or together with other compounds) divided by the overall detected protein species.

[1] = DTNB thiol reactivity assay; format: physicochemical
Experimental: The compound 5,5′-dithio-bis(2-nitrobenzoic acid) (DTNB; 50 μM) was incubated with 200 μM tris(2-carboxyethyl)phosphine (TCEP) in 20 mM sodium phosphate buffer (pH 7.4) and 150 mM NaCl for 5 min at room temperature to obtain TNB^–2. […] UV absorbance was acquired every 15 min for 7 h. The assay was performed in a 384-well plate using a Tecan Spark 10 M plate reader. […] Compounds were measured in triplicate. The data were fitted to a second-order reaction equation such that the rate constant (K) is the slope of ln([A][B0]/[B][A0]), where [A0] and [B0] are the initial concentrations of the compound (200 μM) and TNB^–2 (100 μM), respectively, and [A] and [B] are the remaining concentrations as a function of time as deduced from spectrometric measurements. Linear regression using Prism was performed to fit the rate against the first 7 h of measurements.

[2] = GSH consumption assay (LC/MS); conditions: for covalent bond formation with GSH: assay conditions or temperatures up to 37 °C for 24 h; for reactivity towards GSH relative to chloroacetamide (1a): 5 mM GSH, 200 μM electrophile, pH 8, 14 °C
Experimental: A sample from the reaction mixture was injected to an LC/MS every hour, and we quantified the decrease in starting material over the course of the reaction.
All solvents were bubbled with argon. Reaction mixtures were kept at 10 °C. Every 1 h, 5 μL from the reaction mixture were injected into the LC/MS. The reaction was followed by the peak area of the electrophile normalized by the area of the 4-nitrocyano benzene (i.e., by the disappearance of the starting material). The natural logarithm of the results was fitted to linear regression, and t1/2 was calculated as t1/2 = ln 2/–slope.

BTK [3] = target: T2, BTK (Homo sapiens, UniProt Q06187); assay: Intact protein mass spectrometry labeling of recombinant BTK; format: binding; set-up: BTK kinase domain was expressed and purified as previously reported; made in house; conditions: 2 μM BTK, 2 μM compound, pH 8, 25 °C
Experimental: BTK kinase domain was expressed and purified as previously reported.[66] Binding experiments were performed in Tris 20 mM (pH 8.0) and 50 mM NaCl at room temperature.
as §1
Target sequence in this assay (Q06187 402-655 limits assumed): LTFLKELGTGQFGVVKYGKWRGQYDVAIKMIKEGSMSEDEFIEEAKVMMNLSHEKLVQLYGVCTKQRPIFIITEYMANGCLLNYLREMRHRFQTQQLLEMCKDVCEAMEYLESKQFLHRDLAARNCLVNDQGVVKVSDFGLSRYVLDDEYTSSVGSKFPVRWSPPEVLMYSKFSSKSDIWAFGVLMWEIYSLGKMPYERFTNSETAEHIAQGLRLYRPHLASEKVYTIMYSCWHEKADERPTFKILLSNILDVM

[4] = Glutamic acid reactivity of model compounds (LC/MS); conditions: pH 8, 37 °C; 4 days
BTK [5] = target: T2, BTK; assay: BTK activity (autophosphorylation) in Mino cells, Western blot; format: cell-based; set-up: endogenous in cells; host or cells: Mino cells
Experimental: To assess the cellular efficacy of these compounds, we followed the inhibition of BTK autophosphorylation in Mino cells. After 1 h of pre-incubation with the inhibitors and B-cell activation with an anti-IgM antibody, BTK autophosphorylation was followed by Western blot.
The cell pellets were subjected to immunoblotting, and Western blots were performed for p-BTK, BTK, and β-actin.
Cell pellets were washed with ice-cold PBS and lysed using RIPA buffer (Sigma, R0278). […] Samples containing 50 μg total protein were prepared with 4× LDS sample buffer (NuPAGE, Thermo Scientific, NP0007) and 20 mM DTT, which were then resolved on a 4–20% Bis–Tris gel (GeneScript SurePAGE, M00657). […] An EZ-ECL Kit (Biological Industries, 20-500-1000) was used to detect HRP activity.
Target sequence in this assay (Q06187 whole entry, the tested form may be a part): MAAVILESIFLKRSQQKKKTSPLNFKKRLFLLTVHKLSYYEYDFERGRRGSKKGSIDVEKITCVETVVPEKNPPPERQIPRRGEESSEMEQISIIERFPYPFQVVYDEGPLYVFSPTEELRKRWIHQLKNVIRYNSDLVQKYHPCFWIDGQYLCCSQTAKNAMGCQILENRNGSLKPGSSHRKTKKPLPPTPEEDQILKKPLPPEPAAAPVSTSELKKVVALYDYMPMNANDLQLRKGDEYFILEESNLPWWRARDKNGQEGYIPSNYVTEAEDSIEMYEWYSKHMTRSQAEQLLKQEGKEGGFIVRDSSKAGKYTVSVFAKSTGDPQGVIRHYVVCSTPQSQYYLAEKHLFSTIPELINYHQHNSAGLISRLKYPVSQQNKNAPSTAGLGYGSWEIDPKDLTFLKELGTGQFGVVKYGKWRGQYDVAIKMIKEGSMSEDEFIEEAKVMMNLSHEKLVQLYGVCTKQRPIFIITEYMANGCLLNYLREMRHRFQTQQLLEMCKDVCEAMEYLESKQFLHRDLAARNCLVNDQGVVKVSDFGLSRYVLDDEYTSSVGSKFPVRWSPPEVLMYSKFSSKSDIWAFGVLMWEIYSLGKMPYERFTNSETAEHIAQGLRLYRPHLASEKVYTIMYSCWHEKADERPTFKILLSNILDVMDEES

BTK [6] = target: T2, BTK; assay: In vitro kinase activity assay (Nanosyn); conditions: for BTK inhibition (in words): 0.5 nM BTK, 5 μM ATP
Target sequence in this assay (Q06187 whole entry, the tested form may be a part): as above

[7] = Metabolic stability of sulfopin analogues in liver microsomes; format: in vitro ADME
Experimental: Next, we examined the buffer stability of the sulfopin sulfamate acetamides in PBS buffer (pH 8; 37 °C). Similar to the model compounds, the chloroacetamide (sulfopin) and sulfonate (4a) warheads show 30 and 15% hydrolysis after 2 days, respectively (Figure S26).
Figure S27: Sulfopin sulfamates show high metabolic stability: Compounds (Sulfopin, 4d, and 4g) were incubated
in liver microsomes and injected to LC/MS/MS at indicated time points. The peak intensities of the compounds were […]

Buffer stability assay = format: physicochemical
Experimental: Reaction mixtures were kept at 37 °C with shaking. After 4 days (unless otherwise mentioned), 5 μL from the reaction mixture were injected into the LC/MS to check the stability of the compounds.

Structure (SMILES): CC(C)(C)CN(C(=O)COS(=O)(=O)Nc1ccc(Br)cc1)C1CCS(=O)(=O)C1 (stereo not drawn) [4e]
- labeling of Pin1 (Pin1): > 90%
- thiol reactivity compared to sulfopin [1]: lower thiol reactivity than sulfopin

Structure (SMILES): CNS(=O)(=O)OCC(=O)N(CC(C)(C)C)C1CCS(=O)(=O)C1 (stereo not drawn) [4b]
- labeling of Pin1 (Pin1): 16%

Structure (SMILES): CS(=O)(=O)CC(=O)NCc1ccccc1 [1i]
- covalent bond formation with GSH [2]: did not form a covalent bond with GSH

Structure (SMILES): Cc1ccc(NS(=O)(=O)OCC(=O)N(CC(C)(C)C)C2CCS(=O)(=O)C2)cc1 (stereo not drawn) [4f]
- labeling of Pin1 (Pin1): less than 30%

Structure (SMILES): CS(=O)(=O)CC(=O)N1CCC[C@@H](n2nc(-c3ccc(Oc4ccccc4)cc3)c3c(N)ncnc32)C1 [3f]
- covalent reaction with BTK (BTK [3]): no labeling; also recorded: failed to react covalently with BTK

Structure (SMILES): O=C(COS(=O)(=O)NCc1ccccc1)NCc1ccccc1 [1e]
- reaction with glutamic acid [4]: did not react
- reactivity towards GSH relative to chloroacetamide (1a) [2]: an order of magnitude less reactivity

Structure (SMILES): CS(=O)(=O)OCC(=O)N1CCC[C@@H](n2nc(-c3ccc(Oc4ccccc4)cc3)c3c(N)ncnc32)C1 [3b]
- pIC50 (BTK [5]; anti-IgM activation, Western blot normalized to β-actin): 8.22
- BTK inhibition (in words) (BTK [6]): potent BTK inhibition
- labeling of BTK (BTK [3]; within 10 min): more than 95%

Structure (SMILES): O=C(COS(=O)(=O)Nc1ccccc1)N(CC1CCCCC1)C1CCS(=O)(=O)C1 (stereo not drawn) [4g]
- labeling of Pin1 (Pin1): > 95%
- metabolic stability (in words) [7]: good metabolic stability
- thiol reactivity compared to sulfopin [1]: slightly higher reactivity

Structure (SMILES): CC(C)(C)CN(C(=O)COS(=O)(=O)NCc1ccccc1)C1CCS(=O)(=O)C1 (stereo not drawn) [4c]
- labeling of Pin1 (Pin1): 56%
- thiol reactivity compared to sulfopin [1]: lower thiol reactivity than sulfopin

Structure (SMILES): Nc1ncnc2c1c(-c1ccc(Oc3ccccc3)cc1)nn2[C@@H]1CCCN(C(=O)CCl)C1 [3a]
- less potency in cellular pBTK inhibition (BTK [5]): 20 fold
- BTK inhibition (in words) (BTK [6]): potent BTK inhibition

Structure (SMILES): O=C(CS(=O)(=O)c1ccccc1)NCc1ccccc1 [1j]
- covalent bond formation with GSH [2]: did not form a covalent bond with GSH

Structure (SMILES): Nc1ncnc2c1c(-c1ccc(Oc3ccccc3)cc1)nn2[C@@H]1CCCN(C(=O)CS(=O)(=O)c2ccccc2)C1 [3g]
- pIC50 (BTK [6]): 6.30
- covalent reaction with BTK (BTK [3]): no labeling; also recorded: failed to react covalently with BTK

Structure (SMILES): CNS(=O)(=O)OCC(=O)NCc1ccccc1 [1d]
- reaction with glutamic acid [4]: did not react
- reactivity towards GSH relative to chloroacetamide (1a) [2]: an order of magnitude less reactivity

Structure (SMILES): Nc1ncnc2c1c(-c1ccc(Oc3ccccc3)cc1)nn2[C@@H]1CCCN(C(=O)COS(=O)(=O)Nc2ccccc2)C1 [3e]
- pIC50 (BTK [6]): 7.00

Structure (SMILES): CC(C)(C)CN(C(=O)COS(C)(=O)=O)C1CCS(=O)(=O)C1 (stereo not drawn) [4a]
- labeling of Pin1 (Pin1): 18%
- hydrolysis (buffer stability, sulfopin analogues) (Buffer stability assay; 200 μM, PBS buffer pH 8, 37 °C for four days): 15%
- hydrolysis (buffer stability, sulfopin analogues) (Buffer stability assay; PBS buffer pH 8, 37 °C, after 2 days): 15%
